Laboratory results published in the NIST ThermoML archive (doi:10.1021/je501141e).

Experiment: xn = mol fraction of the nth substance listed
Settings: 100 kPa, Liquid; for viscosity: Concentric cylinders viscometry; for speed of sound: Frequency=200 MHz, Sing-around technique in a fixed-path interferometer; for mass density: Vibrating tube method

CC(CC(C)(C)C)CC(C)(C)CC(C)(C)C (stereo not given) [2,2,4,4,6,8,8-heptamethylnonane] + CC(CC(C)(C)C)CC(C)(C)C
Settings	mass density [kg/m3]	speed of sound [m/s]	viscosity [mPa·s]
293.15 K, x1 = 0.0772	749.05	1211.7	1.43
293.15 K, x1 = 0.1584	752.89	1219.4	1.55
293.15 K, x1 = 0.2439	756.76	1226.7	1.7
293.15 K, x1 = 0.334	760.65	1234.8	1.87
293.15 K, x1 = 0.4293	764.68	1242.9	2.08
293.15 K, x1 = 0.5302	768.56	1251.1	2.29
293.15 K, x1 = 0.6371	772.47	1259.6	2.56
293.15 K, x1 = 0.7506	776.56	1268.2	2.86
293.15 K, x1 = 0.8711	780.52	1276.9	3.25
293.15 K, x1 = 1	–	–	3.71
303.15 K, x1 = 0.0772	741.82	1173	1.2
303.15 K, x1 = 0.1584	745.73	1180.9	1.3
303.15 K, x1 = 0.2439	749.65	1188.4	1.42
303.15 K, x1 = 0.334	753.6	1196.6	1.55
303.15 K, x1 = 0.4293	757.69	1205	1.71
303.15 K, x1 = 0.5302	761.62	1213.3	1.88
303.15 K, x1 = 0.6371	765.59	1221.9	2.08
303.15 K, x1 = 0.7506	769.74	1230.8	2.31
303.15 K, x1 = 0.8711	773.76	1239.6	2.59
303.15 K, x1 = 1	–	–	2.93
313.15 K, x1 = 0.0772	734.56	1135	1.02
313.15 K, x1 = 0.1584	738.53	1143	1.1
313.15 K, x1 = 0.2439	742.51	1150.7	1.2
313.15 K, x1 = 0.334	746.52	1159	1.3
313.15 K, x1 = 0.4293	750.67	1167.6	1.43
313.15 K, x1 = 0.5302	754.66	1176.1	1.56
313.15 K, x1 = 0.6371	758.69	1184.8	1.72
313.15 K, x1 = 0.7506	762.9	1193.9	1.9
313.15 K, x1 = 0.8711	766.98	1202.8	2.12
313.15 K, x1 = 1	–	–	2.37
323.15 K, x1 = 0.0772	727.27	1097.7	0.882
323.15 K, x1 = 0.1584	731.3	1105.9	0.947
323.15 K, x1 = 0.2439	735.34	1113.7	1.03
323.15 K, x1 = 0.334	739.41	1122.2	1.11
323.15 K, x1 = 0.4293	743.63	1131	1.21
323.15 K, x1 = 0.5302	747.69	1139.7	1.32
323.15 K, x1 = 0.6371	751.78	1148.5	1.44
323.15 K, x1 = 0.7506	756.05	1157.7	1.59
323.15 K, x1 = 0.8711	760.19	1166.8	1.76
323.15 K, x1 = 1	–	–	1.95
333.15 K, x1 = 0.0772	719.94	1061.1	0.768
333.15 K, x1 = 0.1584	724.04	1069.5	0.822
333.15 K, x1 = 0.2439	728.14	1077.5	0.889
333.15 K, x1 = 0.334	732.28	1086.1	0.956
333.15 K, x1 = 0.4293	736.56	1095.1	1.04
333.15 K, x1 = 0.5302	740.68	1103.9	1.13
333.15 K, x1 = 0.6371	744.84	1112.9	1.23
333.15 K, x1 = 0.7506	749.18	1122.3	1.34
333.15 K, x1 = 0.8711	753.38	1131.6	1.48
333.15 K, x1 = 1	–	–	1.64
343.15 K, x1 = 0.0772	712.57	1025.2	0.676
343.15 K, x1 = 0.1584	716.73	1033.7	0.721
343.15 K, x1 = 0.2439	720.9	1041.9	0.778
343.15 K, x1 = 0.334	725.11	1050.7	0.834
343.15 K, x1 = 0.4293	729.46	1059.8	0.906
343.15 K, x1 = 0.5302	733.65	1068.8	0.975
343.15 K, x1 = 0.6371	737.87	1077.9	1.06
343.15 K, x1 = 0.7506	742.28	1087.5	1.15
343.15 K, x1 = 0.8711	746.55	1096.9	1.26
343.15 K, x1 = 1	–	–	1.39
353.15 K, x1 = 0.0772	705	–	0.6
353.15 K, x1 = 0.1584	709.3	–	0.638
353.15 K, x1 = 0.2439	713.4	–	0.687
353.15 K, x1 = 0.334	717.7	–	0.734
353.15 K, x1 = 0.4293	722.1	–	0.794
353.15 K, x1 = 0.5302	726.4	–	0.852
353.15 K, x1 = 0.6371	730.8	–	0.923
353.15 K, x1 = 0.7506	735.1	–	0.998
353.15 K, x1 = 0.8711	739.5	–	1.09
353.15 K, x1 = 1	–	–	1.19
363.15 K, x1 = 0.0772	697.5	–	0.538
363.15 K, x1 = 0.1584	701.8	–	0.57
363.15 K, x1 = 0.2439	706.1	–	0.613
363.15 K, x1 = 0.334	710.4	–	0.653
363.15 K, x1 = 0.4293	714.8	–	0.704
363.15 K, x1 = 0.5302	719.2	–	0.753
363.15 K, x1 = 0.6371	723.7	–	0.813
363.15 K, x1 = 0.7506	728.1	–	0.88
363.15 K, x1 = 0.8711	732.5	–	0.954
363.15 K, x1 = 1	–	–	1.04
373.15 K, x1 = 0.0772	689.9	–	0.487
373.15 K, x1 = 0.1584	694.2	–	0.515
373.15 K, x1 = 0.2439	698.6	–	0.553
373.15 K, x1 = 0.334	703.1	–	0.586
373.15 K, x1 = 0.4293	707.5	–	0.63
373.15 K, x1 = 0.5302	712.1	–	0.673
373.15 K, x1 = 0.6371	716.7	–	0.723
373.15 K, x1 = 0.7506	721.1	–	0.78
373.15 K, x1 = 0.8711	725.6	–	0.841
373.15 K, x1 = 1	–	–	0.913
